The target of assay [1] is T1, GAPCP1 (Arabidopsis thaliana, UniProt Q9SAJ6).
T1 construct: N-terminal His6 (pDEST17), cloned from Arabidopsis cDNA, expressed in E. coli, SEC purified
The assay is described as follows: biochemical. Details: nanoDSF thermal shift, intrinsic fluorescence ratio 350/330 nm, Prometheus NT.48. The conditions noted are these: 1x PBS. As for the experimental part:
(§1) Protein thermal stability measurements GAPC1/2, GAPCP1, and GAPCP2 proteins were obtained as described above, and the human GAPDH recombinant protein was obtained from a commercial supplier (Sigma) and stored in 10 mM Tris buffer (pH 7.5, 0.5 M NaCl). Tyr–Asp (25 μM), 3PGA (250 μM), and other dipeptides (25 μM) were prepared in 1× PBS buffer for the measurements using GAPC1/2 protein. For GAPCP1 Tyr–Asp (25 μM), 3PGA (250 μM) and other dipeptides (25 μM) were prepared in 1× PBS buffer, whereas for GAPCP2 Tyr–Asp (50 μM), 3PGA (250 μM) and other dipeptides (50 μM) were prepared in 1× PBS buffer. In addition, for the human GAPDH Tyr–Asp (500 μM), 3PGA (500 μM) and other dipeptides (500 μM) were prepared in Tris buffer (10 mM Tris-HCl, pH 7.5, 0.5 M NaCl). In accordance, GAPDH (1 μM) and GAPCs (0.2–0.25 mg/ml) were diluted using Tris or PBS buffer, respectively. Capillaries were loaded into the Prometheus NT.48 (Nanotemper). Unfolding was detected during heating in a linear thermal ramp (2 °C min^−1, 20–90 °C) with an excitation power of 60–100%. Temperature-dependent protein unfolding was determined from changes in tryptophan and tyrosine fluorescence at emission wavelengths of 350 and 330 nm. Melting temperatures were determined by detecting the maximum of the first derivative of the fluorescence ratios (F350 nm/F330 nm) as described previously ([43]). To validate the binding, we first tested a commercially available human homolog of GAPC1, GAPDH. Subsequently, plant GAPC1/2, GAPCP1, and GAPCP2 were overexpressed and purified from E. coli. Binding was probed using nano-DSF technology from Nanotemper (Prometheus NT.48; see under “Experimental procedures”). Prometheus NT.48 traces protein thermal stability by recording changes in the tryptophan residues during protein unfolding in an increasing temperature gradient. The melting temperature (Tm) of GAPDH was calculated as 60 °C, GAPC1/2 to 54 °C, GAPCP1 to 55 °C, and GAPCP2 to 55 °C (Fig. 7, C–F; Tables S5 and S6). […] Analogous results were obtained for Tyr–Asp. More specifically, 500 μM Tyr–Asp stabilized GAPDH by ∼1.1 °C, whereas 25–50 μM Tyr–Asp destabilized GAPC1/2, GAPCP1, and GAPCP2 by ∼1, 2, and 1.5 °C, respectively (Fig. 7, C–F; Tables S5 and S6). The obtained results validate the interaction between Tyr–Asp and plant glyceraldehyde-3-P dehydrogenases. The interaction is conserved in the human enzyme.

In assay [2] the target is T2, GAPDH (Homo sapiens, UniProt P04406).
T2 construct: commercial human recombinant protein (Sigma)
T2 sequence (P04406 2-335): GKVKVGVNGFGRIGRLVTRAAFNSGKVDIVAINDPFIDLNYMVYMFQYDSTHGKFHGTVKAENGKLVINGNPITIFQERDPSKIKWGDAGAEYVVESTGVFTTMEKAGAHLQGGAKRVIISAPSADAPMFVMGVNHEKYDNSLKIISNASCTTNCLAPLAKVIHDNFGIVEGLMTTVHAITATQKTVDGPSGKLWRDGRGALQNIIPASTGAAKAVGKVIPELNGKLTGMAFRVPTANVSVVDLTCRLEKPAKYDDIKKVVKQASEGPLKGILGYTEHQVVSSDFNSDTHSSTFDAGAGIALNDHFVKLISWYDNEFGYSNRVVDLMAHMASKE
The assay is described as follows: biochemical. The note with it: 10 mM Tris pH 7.5, 0.5 M NaCl. Details: nanoDSF thermal shift, intrinsic fluorescence ratio 350/330 nm, Prometheus NT.48. As for the experimental part:
as §1

Assay [3] deals with T3, GAPCP2 (Arabidopsis thaliana, UniProt Q5E924).
T3 construct: N-terminal His6 (pDEST17), cloned from Arabidopsis cDNA, expressed in E. coli, SEC purified
T3 sequence (Q5E924 67-420): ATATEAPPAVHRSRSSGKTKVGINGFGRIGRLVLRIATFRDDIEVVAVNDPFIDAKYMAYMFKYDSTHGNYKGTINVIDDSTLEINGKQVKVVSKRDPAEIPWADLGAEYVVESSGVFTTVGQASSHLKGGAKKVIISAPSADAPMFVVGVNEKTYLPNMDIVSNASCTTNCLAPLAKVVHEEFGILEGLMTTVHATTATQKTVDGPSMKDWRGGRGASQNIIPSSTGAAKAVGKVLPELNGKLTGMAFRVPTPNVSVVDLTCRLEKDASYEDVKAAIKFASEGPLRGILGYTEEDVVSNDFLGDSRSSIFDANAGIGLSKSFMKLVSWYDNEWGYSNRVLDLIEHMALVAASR
The experiment in a line: biochemical. Further details: nanoDSF thermal shift, intrinsic fluorescence ratio 350/330 nm, Prometheus NT.48. The note with it: 1x PBS. As to the method:
as §1

The next assay has as its target T4, MTI (Arabidopsis thaliana, UniProt Q9ZUG4).
T4 construct: gene At2g05830; N-terminal His6 (pET300), E. coli BL21 Star (DE3), Ni-NTA purified; RED-Tris-NTA labelled
T4 sequence (Q9ZUG4 1-374): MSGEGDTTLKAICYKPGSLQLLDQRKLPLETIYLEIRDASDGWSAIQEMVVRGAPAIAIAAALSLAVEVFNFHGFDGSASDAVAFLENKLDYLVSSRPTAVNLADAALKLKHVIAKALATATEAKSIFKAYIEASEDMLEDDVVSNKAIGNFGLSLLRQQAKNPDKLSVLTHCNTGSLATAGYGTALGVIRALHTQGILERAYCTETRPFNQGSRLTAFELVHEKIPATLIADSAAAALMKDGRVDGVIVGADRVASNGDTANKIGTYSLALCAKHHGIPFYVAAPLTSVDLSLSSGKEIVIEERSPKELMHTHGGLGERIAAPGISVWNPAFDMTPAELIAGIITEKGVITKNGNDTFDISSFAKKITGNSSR
The assay is described as follows: microscale thermophoresis. The assay is classed as binding.

The next assay concerns the target T5, KPHMT1 (Arabidopsis thaliana, UniProt O82357).
T5 construct: N-terminal 144 bp of CDS (mitochondrial signal peptide, 48 residues) deleted; N-terminal His6 (pET300), E. coli BL21 Star (DE3); purified per Results, bacterial lysate used directly per Methods; RED-Tris-NTA labelled
T5 sequence (O82357 49-347): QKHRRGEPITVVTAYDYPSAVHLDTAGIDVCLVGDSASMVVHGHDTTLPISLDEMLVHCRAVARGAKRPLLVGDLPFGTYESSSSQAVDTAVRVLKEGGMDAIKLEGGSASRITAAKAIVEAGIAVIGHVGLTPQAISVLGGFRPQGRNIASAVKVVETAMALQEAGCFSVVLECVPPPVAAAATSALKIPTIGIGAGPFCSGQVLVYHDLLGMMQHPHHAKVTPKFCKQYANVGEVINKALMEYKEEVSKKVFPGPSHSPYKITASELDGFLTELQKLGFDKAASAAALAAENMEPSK
The experiment in a line: microscale thermophoresis. The assay is classed as binding.

Assay [4] concerns the target T2, GAPDH. The experiment in a line: nanoDSF thermal shift. In kind it is binding. The note with it: 500 μM ligand; 1 μM protein; 10 mM Tris-HCl pH 7.5, 0.5 M NaCl.
Assay [5] concerns the target T1, GAPCP1. The experiment in a line: nanoDSF thermal shift. The assay is classed as binding. The conditions noted are these: 25 μM ligand; 0.2-0.25 mg/ml protein; PBS.
Assay [6] concerns the target T1, GAPCP1. The experiment in a line: biochemical. Further details: nanoDSF thermal shift; Tm from ratio of tryptophan fluorescence at 350 and 330 nm. As for the experimental part: (§2) GAPC1/2, GAPCP1, and GAPCP2 proteins were obtained as described above, and the human GAPDH recombinant protein was obtained from a commercial supplier (Sigma) and stored in 10 mM Tris buffer (pH 7.5, 0.5 M NaCl). Tyr–Asp (25 μM), 3PGA (250 μM), and other dipeptides (25 μM) were prepared in 1× PBS buffer for the measurements using GAPC1/2 protein. For GAPCP1 Tyr–Asp (25 μM), 3PGA (250 μM) and other dipeptides (25 μM) were prepared in 1× PBS buffer, whereas for GAPCP2 Tyr–Asp (50 μM), 3PGA (250 μM) and other dipeptides (50 μM) were prepared in 1× PBS buffer. In addition, for the human GAPDH Tyr–Asp (500 μM), 3PGA (500 μM) and other dipeptides (500 μM) were prepared in Tris buffer (10 mM Tris-HCl, pH 7.5, 0.5 M NaCl). […] Unfolding was detected during heating in a linear thermal ramp (2 °C min^−1, 20–90 °C) with an excitation power of 60–100%. Temperature-dependent protein unfolding was determined from changes in tryptophan and tyrosine fluorescence at emission wavelengths of 350 and 330 nm. Melting temperatures were determined by detecting the maximum of the first derivative of the fluorescence ratios (F350 nm/F330 nm) as described previously ([43]). […] The melting temperature (Tm) of GAPDH was calculated as 60 °C, GAPC1/2 to 54 °C, GAPCP1 to 55 °C, and GAPCP2 to 55 °C (Fig. 7, C–F; Tables S5 and S6). […]

Assay [7] has as its target T3, GAPCP2. The experiment in a line: biochemical. Details: nanoDSF thermal shift; Tm from ratio of tryptophan fluorescence at 350 and 330 nm. As to the method: as §2
The target of assay [8] is T3, GAPCP2. The experiment in a line: nanoDSF thermal shift. In kind it is binding. The conditions noted are these: 50 μM ligand; 0.2-0.25 mg/ml protein; PBS.

Like-named read-outs stand apart in the source and are kept apart here. Where a SMILES comes first, the peptide text is derived from it.

The record followed here is publication PMC6093232, “PROMIS, global analysis of PROtein–metabolite interactions using size separation in Arabidopsis thaliana” (The Journal of Biological Chemistry, 2018).

T1 sequence (Q9SAJ6 whole entry): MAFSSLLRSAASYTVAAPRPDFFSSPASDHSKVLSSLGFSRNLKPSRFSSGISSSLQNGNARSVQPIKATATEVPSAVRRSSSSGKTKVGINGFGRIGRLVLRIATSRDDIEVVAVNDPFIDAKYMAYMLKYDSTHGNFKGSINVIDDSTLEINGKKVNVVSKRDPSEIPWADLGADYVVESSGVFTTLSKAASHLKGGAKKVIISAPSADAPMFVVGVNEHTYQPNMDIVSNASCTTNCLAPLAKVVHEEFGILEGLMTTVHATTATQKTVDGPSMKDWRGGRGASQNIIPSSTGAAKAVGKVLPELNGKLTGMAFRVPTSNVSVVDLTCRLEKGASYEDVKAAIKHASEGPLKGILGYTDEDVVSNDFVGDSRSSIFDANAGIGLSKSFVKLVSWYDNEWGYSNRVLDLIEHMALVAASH

Turning to `NCC(=O)N1CCC[C@H]1C(=O)O` [GlyPro] (H-Gly-Pro-OH), the ΔTm at 25 µM on GAPCP1 [1] was -0.11 °C. Besides, the thermal shift (ΔTm) at 500 µM at GAPDH [2] stood at 0.1 °C. Besides, the ΔTm at 50 µM at GAPCP2 [3] stood at 0.55 °C.

With `CSC[C@H]1O[C@@H](n2cnc3c(N)ncnc32)[C@H](O)[C@@H]1O` [MTA], the Kd on MTI is 4 µM.

As to `O=C(O)CC[C@H](NC(=O)[C@@H]1CCCN1)C(=O)O` [ProGlu] (H-Pro-Glu-OH), the ΔTm at 25 µM on GAPCP1 [1] is -0.1 °C. Also, at GAPDH [2], the shift in melting temperature (ΔTm) at 500 µM came out at 0.1 °C. In addition, on GAPCP2 [3], the ΔTm at 50 µM is -0.12 °C.

As to `CC(C)(CO)[C@@H](O)C(=O)NCCC(=O)O` [pantothenate], the dissociation constant Kd on KPHMT1 was 500 µM.

`CSCC[C@H](NC(=O)[C@@H](N)[C@@H](C)O)C(=O)O` [ThrMet] (H-Thr-Met-OH): the ΔTm at 25 µM at GAPCP1 [1] was -0.01 °C. The ΔTm at 500 µM on GAPDH [2] came to 0.2 °C. Besides, the ΔTm at 50 µM on GAPCP2 [3] is 0.66 °C.

As for `N[C@@H](Cc1c[nH]cn1)C(=O)N[C@@H](Cc1ccc(O)cc1)C(=O)O` [His–Tyr] (H-His-Tyr-OH), the dTm result at GAPDH [4] was “Tm of the human GAPDH was affected by the presence of two other Tyr-containing dipeptides”. The ΔTm at 25 µM at GAPCP1 [1] was -0.02 °C. For the same molecule, the ΔTm at 500 µM at GAPDH [2] is -1.2 °C. Further, the thermal shift (ΔTm) at 50 µM on GAPCP2 [3] is 0.22 °C.

As for `N[C@@H](Cc1ccc(O)cc1)C(=O)N[C@@H](CC(=O)O)C(=O)O` [Tyr–Asp] (H-Tyr-Asp-OH), the “dTm (destabilized)” value at GAPCP1 [5] was ~ 2 °C; on GAPCP2 [8], ~ 1.5 °C. For the same molecule, the shift in melting temperature (ΔTm) at 25 µM at GAPCP1 [1] (experiment 1) is -1.56 °C; on GAPCP1 [1] (experiment 2), -2.09 °C; at GAPCP1 [1] (experiment 3), -2.2 °C; on GAPCP1 [1] (experiment 4) it was -2.06 °C; on GAPCP1 [6], -2.06 °C. In addition, the ΔTm at 500 µM on GAPDH [2] (experiment 1) was found to be 2.2 °C; on GAPDH [2] (experiment 2) it was 1.31 °C; on GAPDH [2] (experiment 4), 1.06 °C. The ΔTm at 50 µM on GAPCP2 [3] (experiment 1) is -1.6 °C; at GAPCP2 [3] (experiment 2), -1.58 °C; at GAPCP2 [3] (experiment 3), -1.55 °C; at GAPCP2 [3] (experiment 4), -1.23 °C; at GAPCP2 [7] it was -1.23 °C.

With `CC(C)C[C@H](N)C(=O)N[C@@H](Cc1ccccc1)C(=O)O` [LeuPhe] (H-Leu-Phe-OH), the shift in melting temperature (ΔTm) at 25 µM on GAPCP1 [1] was -0.33 °C. Besides, at GAPDH [2], the thermal shift (ΔTm) at 500 µM came to 0.2 °C. Moreover, the shift in melting temperature (ΔTm) at 50 µM at GAPCP2 [3] is 0.2 °C.

With `CC(C)C[C@H](NC(=O)[C@@H](N)Cc1ccc(O)cc1)C(=O)O` [TyrLeu] (H-Tyr-Leu-OH), on GAPCP1 [1], the thermal shift (ΔTm) at 25 µM was found to be 0.15 °C. The ΔTm at 500 µM on GAPDH [2] is 2.2 °C. For the same molecule, at GAPCP2 [3], the ΔTm at 50 µM was determined as 1.67 °C.
